Results from article PMC4072508, “Genome-Wide Prediction and Validation of Peptides That Bind Human Prosurvival Bcl-2 Proteins” (PLoS Computational Biology, 2014).
Like-named read-outs stand apart in the source and are kept apart here. Residues, ends and D or L forms follow the SMILES beside them. No end group written: not given here.

Columns and labels:
Experiment in all cases: Fluorescence polarization direct binding
Bcl-2 = biological target: T1, Bcl-2 (Homo sapiens, UniProt P10415, DEL53-91)
T1 construct: myc- Bcl-2 FP; made in house
Procedure: (§1) Peptides were purified by reverse-phase HPLC using a C18 column and a linear water/acetonitrile gradient. We re-analyzed the purified peptide by mass spectrometry if there was not a single well-defined peak in HPLC chromatogram.
(§2) Fluorescence polarization (FP) assays were done at 25°C in assay buffer (20 mM NaPO4, 50 mM NaCl, 1 mM EDTA, 0.001% Triton X (v/v), pH 7.8). […] For all FP experiments, the total well volume was 120 µl. […] Anisotropy was measured using a Spectramax M5 plate reader from Molecular Devices.
(§3) Direct binding curves were fit using Pylab/Scipy/Optimize to a single-site binding model utilized previously.
(§4) ^1Best-fit KD values determined by combining all replicate titration curves and fitting to a direct binding model (see Methods). […] Values with an X followed by a number indicate the highest concentration (the number, in nM) for which signal was measured yet no binding was detected.

Bcl-w = biological target: T2, Bcl-w (Homo sapiens, UniProt Q92843, Q133R)
T2 construct: myc-Bcl-w SPOT array & FP; made in house
T2 sequence (Q92843 with tags, fused parts or gaps Q133R): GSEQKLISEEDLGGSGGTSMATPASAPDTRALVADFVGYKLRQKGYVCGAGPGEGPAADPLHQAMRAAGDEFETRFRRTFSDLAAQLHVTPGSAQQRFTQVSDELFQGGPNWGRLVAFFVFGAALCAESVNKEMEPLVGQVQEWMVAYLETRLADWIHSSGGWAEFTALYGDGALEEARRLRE
Procedure: as §1, §2, §3, §4

Bcl-xL = biological target: T3, Bcl-xL (Homo sapiens, UniProt Q07817)
T3 construct: myc-Bcl-xL SPOT array & FP; made in house
Procedure: as §1, §2, §3, §4

Bfl-1 = biological target: T4, Bfl-1 (Homo sapiens, UniProt Q16548)
T4 construct: myc- Bfl-1 SPOT array & FP; made in house
T4 sequence (Q16548 with tags, fused parts or gaps): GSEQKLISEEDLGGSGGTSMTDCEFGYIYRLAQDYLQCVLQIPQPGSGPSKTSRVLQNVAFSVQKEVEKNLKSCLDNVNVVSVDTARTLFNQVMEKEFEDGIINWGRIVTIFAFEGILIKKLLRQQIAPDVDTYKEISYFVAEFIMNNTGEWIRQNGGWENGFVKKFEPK
Procedure: as §1, §2, §3, §4

Mcl-1 = biological target: T5, Mcl-1 (Homo sapiens, UniProt Q07820)
T5 construct: myc-Mcl-1 SPOT array & FP; made in house
Procedure: as §1, §2, §3, §4

[1] = FP direct binding, 10 nM FAM-labeled peptide, receptor titrated, 25°C, pH 7.8, fit of all replicate titrations, X+number in a cell = highest concentration (nM) measured with no binding detected, given here as >, SPNS1 fit to raw fluorescence, read-out: Best-fit KD, Bcl-2
[2] = FP direct binding, 10 nM FAM-labeled peptide, receptor titrated, 25°C, pH 7.8, fit of all replicate titrations, X+number in a cell = highest concentration (nM) measured with no binding detected, given here as >, SPNS1 fit to raw fluorescence, read-out: Best-fit KD, Bcl-w
[3] = FP direct binding, 10 nM FAM-labeled peptide, receptor titrated, 25°C, pH 7.8, fit of all replicate titrations, X+number in a cell = highest concentration (nM) measured with no binding detected, given here as >, SPNS1 fit to raw fluorescence, read-out: Best-fit KD, Bcl-xL
[4] = FP direct binding, 10 nM FAM-labeled peptide, receptor titrated, 25°C, pH 7.8, fit of all replicate titrations, X+number in a cell = highest concentration (nM) measured with no binding detected, given here as >, SPNS1 fit to raw fluorescence, read-out: Best-fit KD, Bfl-1
[5] = Binder class, Mcl-1, benchmark classification of peptides newly characterized in this study
[6] = FP direct binding, 10 nM FAM-labeled peptide, receptor titrated, 25°C, pH 7.8, fit of all replicate titrations, X+number in a cell = highest concentration (nM) measured with no binding detected, given here as >, SPNS1 fit to raw fluorescence
[7] = benchmark classification of peptides newly characterized in this study, read-out: Binder class, Bcl-2
[8] = benchmark classification of peptides newly characterized in this study, read-out: Binder class, Bcl-w
[9] = benchmark classification of peptides newly characterized in this study, read-out: Binder class, Bcl-xL
[10] = benchmark classification of peptides newly characterized in this study, read-out: Binder class, Bfl-1

T3 sequence (Q07817 with tags, fused parts or gaps): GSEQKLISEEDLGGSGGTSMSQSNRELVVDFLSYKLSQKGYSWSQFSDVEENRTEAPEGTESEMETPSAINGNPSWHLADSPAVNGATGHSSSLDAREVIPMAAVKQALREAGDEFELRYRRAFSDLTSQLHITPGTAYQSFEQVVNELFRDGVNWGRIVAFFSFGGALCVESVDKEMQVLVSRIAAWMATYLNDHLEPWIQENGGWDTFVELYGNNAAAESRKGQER
T5 sequence (Q07820 with tags, fused parts or gaps): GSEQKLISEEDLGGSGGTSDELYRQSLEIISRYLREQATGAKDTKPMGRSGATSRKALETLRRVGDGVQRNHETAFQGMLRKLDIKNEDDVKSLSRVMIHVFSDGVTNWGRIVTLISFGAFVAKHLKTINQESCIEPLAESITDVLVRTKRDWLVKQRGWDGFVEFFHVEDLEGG
T1 sequence (P10415 with tags, fused parts or gaps DEL53-91): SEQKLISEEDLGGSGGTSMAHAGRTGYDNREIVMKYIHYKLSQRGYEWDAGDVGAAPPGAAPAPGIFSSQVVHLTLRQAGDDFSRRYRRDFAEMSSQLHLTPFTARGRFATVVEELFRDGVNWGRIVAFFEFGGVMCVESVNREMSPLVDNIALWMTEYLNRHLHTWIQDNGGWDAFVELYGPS

| Compound | Kd (Bcl-2; [1]) [nM] | Kd (Bcl-w; [2]) [nM] | Kd (Bcl-xL; [3]) [nM] | Kd (Bfl-1; [4]) [nM] | Kd (Mcl-1; [5]) [nM] | Kd (Mcl-1; [6]) [nM] | Best-fit KD, Bcl-2 (Bcl-2; [6]) | Kd (Bcl-2; [7]) [nM] | Best-fit KD, Bcl-w (Bcl-w; [6]) | Kd (Bcl-w; [8]) [nM] | Best-fit KD, Bcl-xL (Bcl-xL; [6]) | Kd (Bcl-xL; [9]) [nM] | Kd (Bfl-1; [10]) [nM] |
| --- | --- | --- | --- | --- | --- | --- | --- | --- | --- | --- | --- | --- | --- |
| CC[C@H](C)[C@H](NC(=O)[C@@H](NC(=O)[C@H](CCSC)NC(=O)CNC(=O)[C@H](CCCNC(=N)N)NC(=O)[C@H](CO)NC(=O)[C@H](CCC(N)=O)NC(=O)[C@H](CC(C)C)NC(=O)[C@H](CC(C)C)NC(=O)[C@H](CO)NC(=O)CNC(=O)[C@H](CS)NC(=O)[C@@H](NC(=O)[C@H](CC(=O)O)NC(=O)[C@H](CCCNC(=N)N)NC(=O)[C@H](CCSC)NC(=O)[C@H](CC(C)C)NC(=O)[C@H](CCCCN)NC(=O)[C@H](CO)NC(=O)[C@@H](NC(=O)[C@H](CS)NC(=O)[C@H](CO)NC(=O)[C@H](CC(C)C)NC(=O)[C@H](CCC(N)=O)NC(=O)[C@H](CS)NC(=O)[C@@H](N)CC(C)C)C(C)C)C(C)C)C(C)C)C(N)=O [FBXO30] (H-LCQLSCVSKLMRDVCGSLLQSRGMVI-NH2) | 2560 | 3280 | > 10000 | > 10000 | 1000 to 10000 | > 10000 |  |  |  |  |  |  |  |
| CC[C@H](C)[C@H](NC(=O)[C@H](CCC(=O)O)NC(=O)[C@H](C)NC(=O)[C@H](CO)NC(=O)[C@H](Cc1ccccc1)NC(=O)[C@H](CCC(N)=O)NC(=O)[C@H](CC(=O)O)NC(=O)[C@H](C)NC(=O)[C@H](CC(C)C)NC(=O)[C@H](Cc1c[nH]cn1)NC(=O)[C@H](CCCNC(=N)N)NC(=O)[C@H](CC(C)C)NC(=O)[C@H](CCC(=O)O)NC(=O)[C@H](CCC(N)=O)NC(=O)[C@H](C)NC(=O)[C@H](CCCCN)NC(=O)[C@@H]1CCCN1C(=O)[C@H](CCCNC(=N)N)NC(=O)[C@@H](NC(=O)[C@@H](N)CO)[C@@H](C)CC)C(=O)N[C@@H](C)C(=O)N[C@@H](CCCNC(=N)N)C(=O)N[C@@H](CCCNC(=N)N)C(N)=O [MCF2L] | 6 | 7 | 4 | > 4100 | > 10000 | > 4000 | bound tightly | < 1000 | bound tightly | < 1000 | bound tightly | < 1000 | > 10000 |
| CC(C)C[C@H](NC(=O)CNC(=O)[C@@H](NC(=O)[C@H](CCCCN)NC(=O)[C@H](CCCCN)NC(=O)[C@H](CC(N)=O)NC(=O)[C@H](CCC(=O)O)NC(=O)[C@H](CC(=O)O)NC(=O)[C@@H](N)[C@@H](C)O)C(C)C)C(=O)N[C@@H](C)C(=O)N[C@@H](CC(C)C)C(=O)N[C@@H](CCCCN)C(=O)N[C@@H](CC(=O)O)C(=O)N[C@@H](CC(C)C)C(=O)N[C@@H](C)C(=O)N[C@@H](CCCCN)C(=O)N[C@@H](CCC(N)=O)C(=O)N[C@@H](Cc1ccc(O)cc1)C(=O)N[C@@H](CO)C(=O)N[C@@H](CC(=O)O)C(=O)N[C@@H](CCCNC(=N)N)C(=O)N[C@@H](CC(C)C)C(=O)N[C@@H](CCC(=O)O)C(=O)N[C@@H](CS)C(=O)N[C@@H](CS)C(=O)N[C@@H](CCC(=O)O)C(N)=O [NUB1] (H-TDENKKVGLALKDLAKQYSDRLECCE-NH2) | 562 | > 4000 | 2720 | > 4000 | > 10000 | > 10000 |  |  |  |  |  |  |  |
| AIRPRAVELRHLADDFINGNKKK-NH2 [MCF2L2] | 60 | 1120 | 292 | > 3370 | > 10000 | > 4000 |  | < 1000 |  | 1000 to 10000 |  | < 1000 | > 10000 |
| APYYLSRNLKQQADIIFMPYNYL-NH2 [RTEL1] | 342 | > 100000 | 1380 | > 4000 | 1000 to 10000 | > 4000 |  | 1000 to 10000 |  | 1000 to 10000 |  | 1000 to 10000 | > 10000 |
| ATKRETAATFLKKVAKEFGFQNNGFS-NH2 [NPLOC4] | 2060 | > 4500 | > 100000 | > 4670 | 1000 to 10000 | > 4000 |  | > 10000 |  | > 10000 |  | > 10000 | > 10000 |
| ATRRLSGFLRTLADRLEGTKELL-NH2 [MINA] | 266 | 1230 | 1010 | 1130 | > 10000 | > 10000 |  | < 1000 |  | 1000 to 10000 |  | 1000 to 10000 | 1000 to 10000 |
| AWGKFGGAFARYADEMKEIQERQ-NH2 [PURB] | 34 | > 1800 | > 100000 | > 4670 | > 10000 | > 4000 |  | < 1000 |  | > 10000 |  | > 10000 | > 10000 |
| ELQELARKLQELADASENLLTEN-NH2 [TXNDC11] | 86 | 249 | 1490 | > 10000 | 1000 to 10000 | 2380 |  | < 1000 |  | < 1000 |  | 1000 to 10000 | > 10000 |
| EVLAGPLAQRLSHIAEDVGRLVKKSR-NH2 [ARHGAP4] | 6090 | 749 | 3060 | > 5590 | < 1000 | > 2430 |  | 1000 to 10000 |  | 1000 to 10000 |  | 1000 to 10000 | > 10000 |
| FTGNNTAVQELKRVSEQFTATFRRKA-NH2 [TUBB4Q] | 1410 | 2490 | 2050 | > 4670 | < 1000 | 1460 |  | 1000 to 10000 |  | 1000 to 10000 |  | 1000 to 10000 | > 10000 |
| GDSVLARMLRELGDSLRRPQLRL-NH2 [SLC19A1] | 237 | 18 | 1460 | 182 | < 1000 | 22 |  | < 1000 |  | < 1000 |  | 1000 to 10000 | < 1000 |
